The values below come from patent publication US7959691B2, “Composition” (Innospec Deutschland GmbH, priority 2009, dated 2011).

Marks after values point to notes of the source that are not given here.

Data set [1] in a line: Iron content of Isopar L solutions stored at −30° C. (Example 2). It counts as physicochemical. Particulars: for Iron content of Isopar L solutions at −30° C.: 5 wt % iron solutions in Isopar L stored at −30° C. at least one week, filtered, X-ray spectroscopy; for Iron content of Isopar L solutions at −30° C., purified sample: as E8, sample first purified by dissolving in minimum heptane, recrystallising out ferrocene, filtration, solvent removal. On the procedure: The solubilities of the products of the above reactions were determined on a weight percent iron basis. […] Solutions at 5 wt % iron in Isopar L were prepared on this basis, sealed into vials and stored at −30° C. during at least one week.

Data set [2] is described as follows: Solubility in Isopar L at −30° C. during 120 hours, X-ray fluorescence (Example 4). The data set is classed as physicochemical. Particulars: nominal 5 wt % iron; for Solubility (% m/m Fe): 0.02 μm filtration. The method, then:
The solubility of the isolated samples was determined in Isopar L solvent. For the isolated samples of compounds 7 and 8 the C/H/N analysis was used to indicate the iron content. For compounds 9 and 10 the theoretical iron content was assumed. Solutions were then prepared, at ambient temperatures or with slight warming as required, to a nominal iron content 5 wt % The samples were then sealed and immersed in a bath of ethylene glycol/water cooled and thermostatted to −30° C. during 120 hours.
The samples were then individually removed from the bath, taken up into a 10 cm^3 syringe then discharged to a second vial with filtration via a Whatman Anotop 25 0.02 μm in-line filter with Luer hub. Iron contents were then determined by X-ray fluorescence spectroscopy in an Oxford Instruments ED2000 Ag analyser. The analyser was calibrated against standards of ferrocene in toluene at iron concentrations of 0.5 through 3.0 wt % by 0.5 wt % intervals and against ferrocene in Isopar L 0.5 and 1.0 wt % (approximate ambient temperature solubility limit). Where required, dilution of sample materials was employed to bring the concentration within the range of the calibration.

On data set [3], the source says: Solubility testing was undertaken using the estimate of Fe content from C/H/N analysis. […] This procedure assumes the products below to contain substantially only C, H and Fe. Masses of product(s) sufficient to provide the required concentration of iron as condensation products were weighed into screw-cap vials and made up to 10.00 g with toluene. The samples were capped, shaken or swirled until homogenous then sealed using Parafilm™. The vials were then kept in an ethylene glycol/water filled bath held at −30° C. and periodically inspected for the appearance of solids or separation of liquid phases. After at least one week solids were separated by rapid filtration and soluble products isolated by removal of solvent under vacuum.
Following analysis of the solids, maximum and minimum solubilities were estimated from the mass balance.

Data set [4] is described as follows: Viscosity of 2.5 wt % iron solutions in toluene (Bohlin CVO rheometer). The data set is classed as physicochemical. The note with it: toluene solution at 2.5 wt % Fe. The method, then:
Viscosities of 2.5 wt % iron solutions were determined using a Bohlin Instruments CVO rheometer using a 4° 40 mm cone and plate at shear rates of either 2 Pa or 0.5 Pa.

With 2,2-bis-(ferrocenyl)-pentane, the “Iron content of Isopar L solutions at −30° C.” value in data set [1] turned out to be 2.62 wt %.

As for 1,1-bis-(ferrocenyl)-heptane, the “Iron content of Isopar L solutions at −30° C.” value in data set [1] was determined as 4.05 wt %.

Take 3,3-bis-(ferrocenyl)-butyl acetate: the “Iron content of Isopar L solutions at −30° C.” value in data set [1] is reported as 2.30 wt %.

As for 1,1-bis-(ferrocenyl)-hexane, in data set [1], the “Iron content of Isopar L solutions at −30° C.” value came out at 3.99 wt % and the “Iron content of Isopar L solutions at −30° C., purified sample” value is 4.89* wt %.

2,2-bis-(ferrocenyl)-heptane: the “Iron content of Isopar L solutions at −30° C.” value in data set [1] was found to be 3.29 wt %.

Consider “1,1-bis(butylferrocenyl)pentane [Compound 10]”, for which, in data set [2], the Appearance/ease of filtration entry is recorded as “Clear, but hard to filter” and the “Solubility (% m/m Fe)” value worked out at 4.8 % m/m Fe.

On to 1,1-bis-(ferrocenyl)-nonane, for which the “Iron content of Isopar L solutions at −30° C.” value in data set [1] turned out to be 4.96 wt %.

For the molecule `CCCC(=O)CCC` [Compound 3, Heptan-4-one], in data set [3], the “Solubility in Toluene at −30° C., 2.5 wt % Fe” value (“Solubility … 2.5 wt % Fe” below) is reported as “Clear” and the “Solubility in Toluene at −30° C., 5.0 wt % Fe” value (“Solubility … 5.0 wt % Fe” below) is recorded as “Solids”. Moreover, the “Viscosity at −30° C.” value in data set [4] was found to be 5.1 mPas.

Turning to 3,3-bis-(ferrocenyl)-hexane, the “Iron content of Isopar L solutions at −30° C.” value in data set [1] turned out to be 1.38 wt %.

For the molecule 1,1-bis-(ferrocenyl)-octane, in data set [1], the “Iron content of Isopar L solutions at −30° C.” value was 4.60 wt % and the “Iron content of Isopar L solutions at −30° C., purified sample” value is reported as 4.88* wt %.

With 2,2-bis-(ferrocenyl)-octane, the “Iron content of Isopar L solutions at −30° C.” value in data set [1] came out at 2.72 wt %.

As to `CC(=O)CCC(C)=O` [Compound 2, Acetonyl acetone], in data set [3], the “Solubility … 2.5 wt % Fe” value was “Powder” and the “Solubility … 5.0 wt % Fe” value was “Powder”.

Turning to `CCCCC(C=O)CC` (centres unmarked) [Compound 1, 2-Ethylhexanal], in data set [3], the “Solubility … 2.5 wt % Fe” value is reported as “Clear”; the “Solubility … 5.0 wt % Fe” value was “Clear”; the “solubility limit in toluene” value was “less than 3.2 wt %”. Further, the “Viscosity at −30° C.” value in data set [4] is given as 5.1 to 6.4 mPas.

In the case of 1,1-diferrocenylpentane [Compound 4], in data set [3], the “Solubility … 2.5 wt % Fe” value is “Clear” and the “Solubility … 5.0 wt % Fe” value is given as “Clear”. In addition, the “Viscosity at −30° C.” value in data set [4] was 5.4 mPas.

Turning to 1,1-bis-(ferrocenyl)-decane, the “Iron content of Isopar L solutions at −30° C.” value in data set [1] is recorded as 4.41 wt %.

On to 3,3-bis-(ferrocenyl)-pentane, for which the “Iron content of Isopar L solutions at −30° C.” value in data set [1] worked out at 1.71 wt %.

Turning to “1,1-bis(ethylferrocenyl)pentane [Compound 9]”, in data set [2], the Appearance/ease of filtration result is reported as “Clear, filters well” and the “Solubility (% m/m Fe)” value is 5.0 % m/m Fe.
